Measurements from publication PMC6481137, “Identification of Chinese Herbal Compounds with Potential as JAK3 Inhibitors” (Evidence-based Complementary and Alternative Medicine : eCAM, 2019).

Molecular target: T1, JAK3 kinase (Homo sapiens, UniProt P52333)
T1 construct: JAK3 kinase domain (amino acids 781 to 1124)
Assay: ELISA kinase assay, poly(Glu,Tyr) substrate, […] ATP
Type: biochemical

T1 sequence (P52333 781-1124): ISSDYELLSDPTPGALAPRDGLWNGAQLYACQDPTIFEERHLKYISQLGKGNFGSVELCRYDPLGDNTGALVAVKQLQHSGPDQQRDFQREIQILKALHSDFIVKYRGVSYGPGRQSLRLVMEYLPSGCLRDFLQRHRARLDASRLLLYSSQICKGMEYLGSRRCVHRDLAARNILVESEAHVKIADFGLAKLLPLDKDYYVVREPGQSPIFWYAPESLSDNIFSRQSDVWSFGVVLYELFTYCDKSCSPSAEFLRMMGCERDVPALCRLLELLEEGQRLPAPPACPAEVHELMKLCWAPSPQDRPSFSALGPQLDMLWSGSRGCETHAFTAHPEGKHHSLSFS

Row | Structure (SMILES) | IC50 [µM]
1 | COc1ccc(-c2oc3c(CC=C(C)C)c(O)cc(O)c3c(=O)c2O)cc1 [ICA, Icaritin] | ~20
2 | C[C@H]1COC2=C1C(=O)C(=O)c1c2ccc2c1CCCC2(C)C [CRY, Cryptotanshinone] | ~25
3 | O=C1Nc2ccccc2/C1=C1/Nc2ccccc2C1=O [IND, Indirubin] | ~50
